In patent US7351693B2, “Peptides and nucleic acids of the cathelicidin family, derived from fish, and uses thereof” (priority 2002, dated 2008):
Numbered stars: 1 amine (or outer) side, 2 acyl side, 3 side chain; on linkers, the order of the positions; unused ones are H or OH. Bridge positions count the residues as written; N and C are the ends. Square brackets hold non-standard residues; d marks the D form. Peptide text beside a SMILES is read from it. I, II: the chains in the order shown. Actinocin(9to1) = Cc1c2oc3c(C)ccc(C(=O)[*:1])c3nc-2c(C(=O)[*:2])c(N)c1=O; NMeV = CN[C@H](C(=O)O)C(C)C; Sar = CNCC(=O)O

Tested on: trout bactenecin gene
Test: RT-PCR analysis of trout bactenecin (cathelicidin) expression in stimulated head kidney leucocytes
Assay type: cell-based, rainbow trout
Details: for effect on LPS-stimulated expression of trout bactenecin: added 3 h after LPS stimulation (5 μg/ml), FIG. 14
Description: Rainbow trout head kidney leucocytes were obtained by disrupting the head kidney tissue through a 100 μm nylon mesh. After washing, the leucocytes were suspended in L15 medium (Gibco) and stimulated as follows: • (A) LPS time course: Cells were stimulated with 5 μg/ml of E. coli 0127:B8 lipopolysaccharide (LPS, Sigma) for different time periods (0, 0.5 h, 1 h, 2 h, 3 h, 4 h). • (B) Transcription/translation inhibition: Streptomyces actinomycin D (Sigma) at 100 ng/ml was added to the cells after 3 h of LPS induction (5 μg/ml) to inhibit transcription. Alternatively cycloheximide at 10 μg/ml was added to the cells after 3 h of LPS stimulation (as above) to inhibit translation. • (C) Different inducers: 5 μg/ml of Phytohemagglutinin (PHA, Sigma), 25 ng/ml of Phorbol Myristate Acetate (PMA, Sigma) alone, or in combination with 5×10^−7M of Calcium Ionophore (Sigma) were added to the cells for 4 h.
At the end of the relevant time period, total RNA was isolated from approximately 2×10^7 cells, with RNAzol B (Biogenesis) according to the manufacturer's instructions. The RNA was then reverse transcribed to cDNA and the product used as template in PCRs for the trout cathelicidin gene and β-actin as a positive control. The primers used for the amplification of the cathelicidin gene were fF1 (5′-[…]-3′ SEQ ID NO: 80) and R1 (5′-[…]-3′ SEQ ID NO: 81), and for the β-actin were forward (5′-ATGGAAGATGAAATCGCC-3′ SEQ ID NO: 82) and reverse (5′-TGCCAGATCTTCTCCATG-3′ SEQ ID NO: 83). The PCR reaction mix was as follows: 5 μl of phage mix, 1.5 μl 10 mM dNTPs mix, 0.125 μl of 5 units/μl Taq DNA Polymerase, 2.5 μl 10×NH4 buffer, 0.75 μl 50 mM MgCl2, 1.5 μl forward primer, 1.5 μl reverse primer and 12.125 μl of dH2O. The cycling protocol was as follows: initial melting at 94° C. for 4 min, followed by 30 cycles of 94° C. for 45 sec, 60° C. for 45 sec, 72° C. for 1 min, with a final elongation at 72° C. for 10 min. The expected size of the products was 320 bp for the cathelicidin gene and 260 bp for β-actin.

Structure (SMILES)	effect on LPS-stimulated expression of trout bactenecin	induction of trout bactenecin expression in leucocytes (after 4 h of induction, FIG. 13)
C[C@@H]1C[C@@H]([C@H](O)CC2CC(=O)NC(=O)C2)C(=O)[C@@H](C)C1 [Cycloheximide, cycloheximide]	did not induce a superinduction	–
CCCCCCCCCCCCCC(=O)O[C@@H]1[C@@H](C)[C@@]2(O)[C@@H](C=C(CO)C[C@]3(O)C(=O)C(C)=C[C@@H]23)[C@@H]2C(C)(C)[C@]12OC(C)=O [PMA, Phorbol Myristate Acetate]	–	only PMA+calcium ionophore induced expression
Cc1c2oc3c(C)ccc(C(=O)N[C@@H]4C(=O)N[C@H](C(C)C)C(=O)N5CCC[C@H]5C(=O)N(C)CC(=O)N(C)[C@@H](C(C)C)C(=O)O[C@@H]4C)c3nc-2c(C(=O)N[C@@H]2C(=O)N[C@H](C(C)C)C(=O)N3CCC[C@H]3C(=O)N(C)CC(=O)N(C)[C@@H](C(C)C)C(=O)O[C@@H]2C)c(N)c1=O [actinomycin D] (I: T[dV]P[Sar][NMeV] / II: T[dV]P[Sar][NMeV]; ester I:1-I:C, II:1-II:C; linker I:N-II:N via Actinocin(9to1))	inhibited completely	–
